Consider 4 molecules from paper PMC4982760, “Small-molecule inhibitors identify the RAD52-ssDNA interaction as critical for recovery from replication stress and for survival of BRCA2 deficient cells” (eLife, 2016).

Series [1] has as its system RAD52. Further details: method as in Chandramouly et al., 2015. The settings on record: ref Chandramouly et al., 2015; cited from earlier work.
For another series, the target named is T1, RPA-ssDNA interaction (Homo sapiens, UniProt P15927+P27694+P35244).
T1 construct: made in house
T1 sequence (P27694 whole entry): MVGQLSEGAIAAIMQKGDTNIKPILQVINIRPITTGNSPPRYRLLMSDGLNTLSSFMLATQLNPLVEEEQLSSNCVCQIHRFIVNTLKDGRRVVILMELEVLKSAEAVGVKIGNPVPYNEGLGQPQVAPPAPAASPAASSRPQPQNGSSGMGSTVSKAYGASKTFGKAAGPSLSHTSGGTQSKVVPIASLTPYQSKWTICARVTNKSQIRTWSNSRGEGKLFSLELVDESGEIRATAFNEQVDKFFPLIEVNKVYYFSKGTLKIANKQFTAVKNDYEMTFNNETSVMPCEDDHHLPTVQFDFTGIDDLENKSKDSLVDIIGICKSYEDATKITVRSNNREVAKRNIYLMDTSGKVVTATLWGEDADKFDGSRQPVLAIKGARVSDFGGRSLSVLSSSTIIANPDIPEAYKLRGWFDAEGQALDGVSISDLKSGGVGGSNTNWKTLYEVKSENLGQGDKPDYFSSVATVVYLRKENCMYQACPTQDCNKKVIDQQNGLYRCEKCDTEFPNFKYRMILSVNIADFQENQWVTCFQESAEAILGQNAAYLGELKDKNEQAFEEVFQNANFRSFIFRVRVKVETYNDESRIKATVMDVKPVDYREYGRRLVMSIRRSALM
T1 sequence (P15927 whole entry): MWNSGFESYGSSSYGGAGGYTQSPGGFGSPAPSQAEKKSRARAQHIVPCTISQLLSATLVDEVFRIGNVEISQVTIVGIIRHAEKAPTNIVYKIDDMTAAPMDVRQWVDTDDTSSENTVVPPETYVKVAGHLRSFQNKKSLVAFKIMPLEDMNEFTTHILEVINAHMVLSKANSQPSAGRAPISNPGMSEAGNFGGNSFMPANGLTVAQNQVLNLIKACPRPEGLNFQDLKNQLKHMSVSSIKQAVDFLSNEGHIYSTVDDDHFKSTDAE
T1 sequence (P35244 whole entry): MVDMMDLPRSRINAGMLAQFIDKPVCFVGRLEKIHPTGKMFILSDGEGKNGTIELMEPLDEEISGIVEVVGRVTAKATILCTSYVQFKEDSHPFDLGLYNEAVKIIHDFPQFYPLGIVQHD
Briefly: FRET titration of the RPA-Cy3-dT30-Cy5 complex. It counts as binding. The settings on record: range of tested concentrations. The text has this:
In the cell, ssDNA is typically found in complex with Replication protein A (RPA), the major eukaryotic ssDNA-binding protein essential for DNA replication, repair and recombination ([Wold, 1997]; [Oakley and Patrick, 2010]; [Chen and Wold, 2014]). The RPA-ssDNA complex is a physiologically relevant substrate for the RAD52-mediated strand annealing. […] RPA binds ssDNA with high affinity and extends the ssDNA to its contour length. In our assays such an extension manifests as a distinct FRET state of ~0.3, which is readily distinguished from a FRET state of ~0.48 of free Cy3-dT30-Cy5 ssDNA, as well as ~0.63 FRET of the stoichiometric ssDNA-RPA-RAD52 complex (see Figure 2—figure supplement 1 and ([Grimme and Spies, 2011]) for details). […] Both, however, inhibited the RAD52 binding to and wrapping of RPA-coated ssDNA with IC50 values identical to those determined without RPA (Figure 2e and Figure 3e).
In all experiments, the FRET values for each data point were corrected for the effects of the compounds on the respective substrate in the absence of RAD52.

Series [2] concerns the target T2, interaction between RAD52 and RPA proteins (Homo sapiens, UniProt P43351).
T2 construct: made in house
The experiment in a line: Ni-NTA pull-down of the RAD52-RPA interaction. Particulars: 3 μM RAD52, 3 μM RPA, 3 μM compound. It is filed as binding.

The target of series [3] is T3, RAD52 (Homo sapiens, UniProt P43351).
T3 construct: made in house
T3 sequence (P43351 1-418): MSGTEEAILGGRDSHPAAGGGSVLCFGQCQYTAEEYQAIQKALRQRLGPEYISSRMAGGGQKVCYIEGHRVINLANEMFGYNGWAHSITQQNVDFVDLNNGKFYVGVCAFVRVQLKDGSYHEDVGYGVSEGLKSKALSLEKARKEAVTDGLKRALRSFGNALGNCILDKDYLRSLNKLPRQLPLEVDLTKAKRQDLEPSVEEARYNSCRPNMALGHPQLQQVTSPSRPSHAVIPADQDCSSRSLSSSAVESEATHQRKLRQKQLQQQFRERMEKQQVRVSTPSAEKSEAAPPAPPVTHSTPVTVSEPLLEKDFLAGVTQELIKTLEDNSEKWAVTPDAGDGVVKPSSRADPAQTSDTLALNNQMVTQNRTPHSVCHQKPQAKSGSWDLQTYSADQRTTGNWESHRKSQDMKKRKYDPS
The experiment in a line: WaterLOGSY NMR binding to RAD52. Particulars: 20-40 μM compound, 3.3 μM RAD52. The text has this: (§1) To confirm that the selected compounds bind RAD52, we employed water-ligand observation with gradient spectroscopy (WaterLOGSY), an NMR technique, which is based on transfer of magnetization from bulk water to the protein-bound compound of interest ([Dalvit et al., 2001], [2000]). In WaterLOGSY spectrum, if a compound binds to a protein, the compound will receive negative nuclear Overhauser effects (NOEs) due to the slow tumbling of the protein-compound complex, leading to a positive WaterLOGSY peak. […] Similarly, the binding of ‘6’to RAD52 is evident from the positive WaterLOGSY peaks that are clearly detected for this compound (Figure 3a).
(§2) Compound binding to RAD52 and RPA proteins was analyzed using water-ligand observation with gradient spectroscopy (WaterLOGSY) NMR experiments ([Dalvit et al., 2001], [2000]). The WaterLOGSY spectra of compounds in the presence of RAD52 or RPA were acquired using a water NOE mixing time of 1 s and a T2 relaxation filter of 50 ms just before data acquisition to suppress the broad signals derived from protein. The protein buffer used in the experiments contains 10 mM Tris-d11, 75 mM KCl, 0.25 mM EDTA, pH 7.5, and 10% D20. All NMR data were acquired on a Bruker Avance II 800 MHz NMR spectrometer equipped with a sensitive cryoprobe and recorded at 25°C. The ^1H chemical shifts were referenced to 2,2-dimethyl-2-silapentane-5-sulfonate (DSS). NMR spectra were processed using NMR Pipe ([Delaglio et al., 1995]) and analysed using NMR View ([Johnson and Blevins, 1994]).

In series [4] the target is T4, RPA (Homo sapiens, UniProt P15927+P27694+P35244).
T4 construct: made in house
T4 sequence (P27694 whole entry): as the sequence (P27694 whole entry) above
T4 sequence (P15927 whole entry): as the sequence (P15927 whole entry) above
T4 sequence (P35244 whole entry): as the sequence (P35244 whole entry) above
Briefly: WaterLOGSY NMR binding to RPA. The settings on record: 20-40 μM compound, 3.3 μM RPA.
Text: as §1, §2

The subject of series [5] is GM01604 cells (hTERT-immortalized wild-type human fibroblasts). Briefly: Neutral comet assay, MUS81/EME1/RAD52-dependent DSB formation. It counts as cell-based. The settings on record: Homo sapiens, Fibroblast; GM01604, 2 mM HU + 300 nM UCN01, 6h; read-out: IC50, decrease of mean tail moment following HU treatment. From the text: In human cells, RAD52 may perform both limited recombination-mediator function in the RAD51-dependent pathway ([Lok and Powell, 2012]; [Benson et al., 1998]; [Feng et al., 2011]) as well as additional RAD51-independent roles ([Lok and Powell, 2012]; [Murfuni et al., 2013]; [McIlwraith and West, 2008]). One of these HR independent roles of RAD52 involves stimulation of MUS81/EME1-dependent DSB formation at replication forks stalled by hydroxyurea (HU) treatment in the absence of cellular checkpoints ([Murfuni et al., 2013]). Since the most likely targets of these MUS81/EME1/RAD52-dependent DSBs are the DNA structures produced by RAD52 ([Murfuni et al., 2013]), we expected this activity to depend on the RAD52-ssDNA interaction (Figure 5a). To confirm this, we assessed DSB formation in checkpoint deficient cells using the neutral comet assay. These assays monitor MUS81/EME1/RAD52-dependent DSB formation upon induction of replication stress by HU treatment in primary fibroblasts immortalized by hTERT expression and treated with UNC01 to inhibit CHK1 kinase (Figure 5b). […] Importantly, these inhibitors recapitulate RAD52 depletion by inhibiting RAD52-MUS81-dependent DSBs at stalled replication forks (Figure 5a–b). […] It also confirms our previous supposition that the target of MUS81/EME1-mediated cleavage under these conditions are indeed the structures annealed by RAD52. […]
To induce RAD52-MUS81-dependent cleavage at arrested replication forks ([Murfuni et al., 2013]), hTERT-immortalized wild-type human fibroblasts (GM01604) were treated with 2 mM HU and 300 nM UCN01 for 6h, in the presence and absence of varying concentrations of ‘1’ or ‘6’. […] Slides were analyzed by a computerized image analysis system (Comet IV, Perceptive UK). To assess the quantity of DNA damage, computer-generated tail moment values (tail length x fraction of total DNA in the tail) were used. […] A minimum of 100 cells were analyzed for each compound concentration point.

Series [6] concerns the molecule itself. The experiment in a line: dynamic light scattering; average hydrodynamic radius of RAD52 (15.8 uM) alone or with equimolar compound; 25 C; 50 mM Tris-HCl pH 7.5, 200 mM KCl, 1 mM DTT, 0.5 mM EDTA.
Series [7] has as its target RPA (UniProt P27694;P15927;P35244 1-616;1-270;1-121). The experiment in a line: FRET; 1 nM RPA, 1 nM ssDNA; FRET about 0.3 versus about 0.48 for free DNA; FRET: 30 mM Tris-acetate pH 7.5, 1 mM DTT, 0.1 mg/mL BSA, 25 C; HTS: 20 mM Hepes pH 7.5, 1 mM DTT, 0.1 mg/mL BSA, 25 C. The settings on record: protein: recombinant; copies: 1;1;1; label: Cy3 and Cy5 at the two ends.
The target of series [8] is T5, RAD52 (UniProt P43351 1-418).
T5 sequence: T3 sequence (P43351 1-418)
Briefly: FRET; 1 nM ssDNA; stoichiometric wrapped complex at about 8 nM RAD52; FRET: 30 mM Tris-acetate pH 7.5, 1 mM DTT, 0.1 mg/mL BSA, 25 C; HTS: 20 mM Hepes pH 7.5, 1 mM DTT, 0.1 mg/mL BSA, 25 C. Particulars: protein: recombinant; chain copies: 7; label: Cy3 and Cy5 at the two ends.

The target of a further series is RAD52;RPA (Homo sapiens?;Homo sapiens?, UniProt P43351;P27694;P15927;P35244 1-418;1-616;1-270;1-121, |). Briefly: FRET; 1 nM RPA-coated ssDNA titrated with RAD52; FRET about 0.63; FRET: 30 mM Tris-acetate pH 7.5, 1 mM DTT, 0.1 mg/mL BSA, 25 C; HTS: 20 mM Hepes pH 7.5, 1 mM DTT, 0.1 mg/mL BSA, 25 C. Particulars: protein: recombinant;recombinant; tags: ;; chain copies: 7;1;1;1; label: Cy3 and Cy5 at the two ends.
Chain of RAD52;RPA (P27694 whole entry, chain 2 of 3): as the sequence (P27694 whole entry) above
Chain of RAD52;RPA (P15927 whole entry, chain 3 of 3): as the sequence (P15927 whole entry) above
Chain of RAD52;RPA (P35244 whole entry, chain 4 of 3): as the sequence (P35244 whole entry) above

Chain of RPA (UniProt P27694;P15927;P35244 1-616;1-270;1-121) (P27694 whole entry, chain 1 of 3): as the sequence (P27694 whole entry) above
Chain of RPA (UniProt P27694;P15927;P35244 1-616;1-270;1-121) (P15927 whole entry, chain 2 of 3): as the sequence (P15927 whole entry) above
Chain of RPA (UniProt P27694;P15927;P35244 1-616;1-270;1-121) (P35244 whole entry, chain 3 of 3): as the sequence (P35244 whole entry) above
T2 sequence (P27694 whole entry partner, one chain of several): as the sequence (P27694 whole entry) above
T2 sequence (P15927 whole entry partner, one chain of several): as the sequence (P15927 whole entry) above
T2 sequence (P35244 whole entry partner, one chain of several): as the sequence (P35244 whole entry) above

As to `NC(Cc1cc(O)c(O)cc1O)C(=O)O` (racemic) [6-hydroxy-DL-dopa], the “effect on RAD52 supramolecular assembly” value with RAD52 [1] is given as “disrupts supramolecular assembly of the RAD52 protein”.

The term IC50 denotes the concentration at which inhibition is half-maximal. With `O=C(OC1Cc2c(O)cc(O)cc2OC1c1cc(O)c(O)c(O)c1)c1cc(O)c(O)c(O)c1` (stereo not shown) [Compound 6, Epigallocatechin-3-monogallate], the “effect on the RPA-ssDNA interaction” value at RPA-ssDNA interaction is listed as “neither ‘1’ nor ‘6’ affected the RPA-ssDNA interaction”. In addition, the “effect on the RAD52-RPA interaction” value in series [2] was “neither ‘1’ nor ‘6’ interfered with the interaction between the two proteins”. For the same molecule, at RAD52 [3], the “binding to RAD52 (WaterLOGSY)” value is “physically interact with RAD52 protein”. Also, the “binding to RPA (WaterLOGSY)” value at RPA [4] is listed as “also binds to RPA”. The half-inhibitory concentration (IC50) in series [5] is about 10 µM.

B1: 6xHis-tagged human RAD52 protein (natural protein, UniProt P43351 1-418, looked up)
chain: T3 sequence (P43351 1-418)
notes: RAD52, human DNA repair protein; the N-terminal domain in PDB 1KNO is an undecameric ring
B1: the binding result in [6] is recorded as “binds”.

Take TTTTTTTTTTTTTTTTTTTTTTTTTTTTTT (ssDNA) [Cy3-dT30-Cy5]: the binding result with RPA [7], with RAD52 [8] and in the series with RAD52;RPA was “binds” in each case.
